According to patent US7592457B2 (Korea Research Institute of Chemical Technology, priority 2004, dated 2009):

Tests used:
[1] = biological target: T1, human serotonin 5-HT6 receptor (Homo sapiens, UniProt P50406); assay: [3H]LSD binding at cloned 5-HT6 receptors; details: for IC50: [3H]LSD 1.87 nM, cloned receptor membranes, 37° C., 60 min, read-out: IC50; for inhibition at 10 µM: read-out: Binding affinity (Inhibition rate % at 10 μM) 5HT6
T1 construct: made in house; host or cells: Sf21 insect cells (pBacPAK8 baculovirus vector)
T1 sequence (P50406 whole entry): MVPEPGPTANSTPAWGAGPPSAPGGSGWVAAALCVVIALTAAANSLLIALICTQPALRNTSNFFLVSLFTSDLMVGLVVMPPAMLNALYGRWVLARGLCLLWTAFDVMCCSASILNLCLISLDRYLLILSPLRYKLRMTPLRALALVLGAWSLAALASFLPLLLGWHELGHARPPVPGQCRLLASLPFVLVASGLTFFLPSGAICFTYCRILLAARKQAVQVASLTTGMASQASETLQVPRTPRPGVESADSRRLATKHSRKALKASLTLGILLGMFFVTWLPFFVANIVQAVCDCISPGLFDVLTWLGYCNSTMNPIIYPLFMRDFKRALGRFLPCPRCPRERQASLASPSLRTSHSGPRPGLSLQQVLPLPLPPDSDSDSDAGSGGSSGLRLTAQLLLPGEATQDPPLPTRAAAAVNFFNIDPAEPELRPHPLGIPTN

D1 = D1 (Homo sapiens, UniProt P21728); assay: Radioligand binding for selectivity, D1; details: read-out: Binding affinity (Inhibition rate % at 10 μM) D1
Chain of D1 (P21728 whole entry): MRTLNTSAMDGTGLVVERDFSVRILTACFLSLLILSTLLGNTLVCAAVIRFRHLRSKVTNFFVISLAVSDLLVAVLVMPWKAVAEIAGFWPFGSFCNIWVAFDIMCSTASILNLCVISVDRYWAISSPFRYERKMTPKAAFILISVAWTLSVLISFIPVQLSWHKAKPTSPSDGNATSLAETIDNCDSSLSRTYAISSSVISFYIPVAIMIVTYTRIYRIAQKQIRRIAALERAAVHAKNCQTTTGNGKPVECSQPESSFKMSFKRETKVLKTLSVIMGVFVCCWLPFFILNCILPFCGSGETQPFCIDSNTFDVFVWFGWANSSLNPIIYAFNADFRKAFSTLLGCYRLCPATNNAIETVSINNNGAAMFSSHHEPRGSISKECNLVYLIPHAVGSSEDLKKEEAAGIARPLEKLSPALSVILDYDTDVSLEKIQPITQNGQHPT

5-HT2a = biological target: T2, 5-HT2a (Homo sapiens, UniProt P28223); assay: Radioligand binding, 5-HT2a ([3H]Ketanserin); details: read-out: Binding affinity (Inhibition rate % at 10 μM) 5HT2a
T2 construct: purchased Euroscreen/BioSignal Packard Inc
T2 sequence (P28223 whole entry): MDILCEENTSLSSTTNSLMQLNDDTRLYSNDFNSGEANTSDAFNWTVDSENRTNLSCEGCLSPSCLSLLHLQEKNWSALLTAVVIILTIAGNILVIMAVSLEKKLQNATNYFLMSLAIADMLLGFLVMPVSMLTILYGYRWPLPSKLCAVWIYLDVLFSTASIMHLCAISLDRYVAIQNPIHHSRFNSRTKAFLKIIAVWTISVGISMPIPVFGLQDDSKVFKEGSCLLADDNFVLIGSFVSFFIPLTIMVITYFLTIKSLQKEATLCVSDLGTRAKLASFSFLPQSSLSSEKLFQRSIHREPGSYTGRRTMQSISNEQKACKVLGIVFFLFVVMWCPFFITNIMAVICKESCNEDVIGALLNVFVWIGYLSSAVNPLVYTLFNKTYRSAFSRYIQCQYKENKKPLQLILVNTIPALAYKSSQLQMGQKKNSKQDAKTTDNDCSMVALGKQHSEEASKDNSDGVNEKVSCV
Procedure: (§1) Radioligand bindings were performed according to the test method provided by the supplier of receptor membrane (Euroscreen/BioSignal Packard Inc.).

5-HT7 = biological target: T3, 5-HT7 (Homo sapiens, UniProt P34969); assay: Radioligand binding, 5-HT7 ([3H]LSD); details: read-out: Binding affinity (Inhibition rate % at 10 μM) 5HT7
T3 construct: purchased Euroscreen/BioSignal Packard Inc
T3 sequence (P34969 whole entry): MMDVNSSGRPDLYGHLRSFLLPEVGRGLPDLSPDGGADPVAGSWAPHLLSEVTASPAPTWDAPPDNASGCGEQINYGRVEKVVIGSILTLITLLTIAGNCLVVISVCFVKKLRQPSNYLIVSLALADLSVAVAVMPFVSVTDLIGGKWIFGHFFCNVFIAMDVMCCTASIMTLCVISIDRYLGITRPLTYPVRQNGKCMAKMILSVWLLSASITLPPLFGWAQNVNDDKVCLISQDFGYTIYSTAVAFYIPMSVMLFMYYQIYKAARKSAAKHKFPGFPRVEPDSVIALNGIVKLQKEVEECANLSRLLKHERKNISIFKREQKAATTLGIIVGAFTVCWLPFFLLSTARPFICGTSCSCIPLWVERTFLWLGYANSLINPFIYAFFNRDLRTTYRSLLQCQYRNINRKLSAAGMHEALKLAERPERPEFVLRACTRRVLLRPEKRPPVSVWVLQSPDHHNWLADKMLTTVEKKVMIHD
Procedure: as §1

hD4.2 receptor = biological target: T4, hD4.2 receptor (Homo sapiens, UniProt P21917, DEL265-296); assay: Radioligand binding, dopamine D4 ([3H]YM-09151-2); details: read-out: Binding affinity (Inhibition rate % at 10 μM) D4
T4 construct: purchased BioSignal Packard Inc., Montreal, Canada
T4 sequence (P21917 with tags, fused parts or gaps DEL265-296): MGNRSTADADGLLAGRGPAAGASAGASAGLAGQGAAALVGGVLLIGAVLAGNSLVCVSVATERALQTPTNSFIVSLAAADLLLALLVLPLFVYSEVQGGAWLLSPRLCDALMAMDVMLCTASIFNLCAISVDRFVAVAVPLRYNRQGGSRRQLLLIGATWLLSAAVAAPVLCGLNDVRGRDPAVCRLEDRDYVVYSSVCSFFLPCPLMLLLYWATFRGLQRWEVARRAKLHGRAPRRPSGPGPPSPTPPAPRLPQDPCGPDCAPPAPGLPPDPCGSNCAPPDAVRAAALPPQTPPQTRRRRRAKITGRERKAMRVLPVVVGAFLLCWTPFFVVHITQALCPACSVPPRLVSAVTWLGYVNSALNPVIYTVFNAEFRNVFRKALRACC

hD2L receptor = biological target: T5, hD2L receptor (Homo sapiens, UniProt P14416); assay: Radioligand binding, dopamine D2 ([3H]spiperone); details: read-out: Binding affinity (Inhibition rate % at 10 μM) D2
T5 construct: purchased BioSignal Packard Inc., Montreal, Canada
T5 sequence (P14416 whole entry): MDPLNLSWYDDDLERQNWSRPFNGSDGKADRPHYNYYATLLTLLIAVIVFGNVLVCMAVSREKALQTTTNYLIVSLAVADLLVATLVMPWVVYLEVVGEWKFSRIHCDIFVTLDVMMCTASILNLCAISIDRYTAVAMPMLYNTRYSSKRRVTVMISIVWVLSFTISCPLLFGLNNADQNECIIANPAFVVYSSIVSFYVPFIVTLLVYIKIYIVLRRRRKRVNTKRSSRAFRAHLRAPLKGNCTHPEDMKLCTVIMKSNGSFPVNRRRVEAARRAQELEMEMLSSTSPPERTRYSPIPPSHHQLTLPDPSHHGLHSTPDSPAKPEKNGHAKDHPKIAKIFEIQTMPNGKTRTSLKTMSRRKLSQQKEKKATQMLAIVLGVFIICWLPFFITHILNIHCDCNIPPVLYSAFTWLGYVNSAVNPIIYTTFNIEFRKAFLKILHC

5-HT2c = biological target: T6, 5-HT2c (Homo sapiens, UniProt P28335); assay: Radioligand binding, 5-HT2c ([3H]Mesulergine); details: read-out: Binding affinity (Inhibition rate % at 10 μM) 5HT2c
T6 construct: purchased Euroscreen/BioSignal Packard Inc
T6 sequence (P28335 33-458): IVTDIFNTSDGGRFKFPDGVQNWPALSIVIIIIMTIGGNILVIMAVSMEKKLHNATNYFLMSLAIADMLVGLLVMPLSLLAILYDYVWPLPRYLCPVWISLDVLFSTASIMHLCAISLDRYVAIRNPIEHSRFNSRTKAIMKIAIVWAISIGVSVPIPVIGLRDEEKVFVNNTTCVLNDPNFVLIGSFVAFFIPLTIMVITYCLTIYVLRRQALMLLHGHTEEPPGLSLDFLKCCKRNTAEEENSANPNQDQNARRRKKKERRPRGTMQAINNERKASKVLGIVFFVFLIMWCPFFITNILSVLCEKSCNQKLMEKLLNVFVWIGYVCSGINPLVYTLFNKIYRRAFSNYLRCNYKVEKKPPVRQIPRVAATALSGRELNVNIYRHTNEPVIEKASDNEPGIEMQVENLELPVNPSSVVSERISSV
Procedure: as §1

5-HT1a = biological target: T7, 5-HT1a (Homo sapiens, UniProt P08908); assay: Radioligand binding, 5-HT1a ([3H]8-OH-DPAT); details: read-out: Binding affinity (Inhibition rate % at 10 μM) 5HT1a
T7 construct: purchased Euroscreen/BioSignal Packard Inc
T7 sequence (P08908 1-422): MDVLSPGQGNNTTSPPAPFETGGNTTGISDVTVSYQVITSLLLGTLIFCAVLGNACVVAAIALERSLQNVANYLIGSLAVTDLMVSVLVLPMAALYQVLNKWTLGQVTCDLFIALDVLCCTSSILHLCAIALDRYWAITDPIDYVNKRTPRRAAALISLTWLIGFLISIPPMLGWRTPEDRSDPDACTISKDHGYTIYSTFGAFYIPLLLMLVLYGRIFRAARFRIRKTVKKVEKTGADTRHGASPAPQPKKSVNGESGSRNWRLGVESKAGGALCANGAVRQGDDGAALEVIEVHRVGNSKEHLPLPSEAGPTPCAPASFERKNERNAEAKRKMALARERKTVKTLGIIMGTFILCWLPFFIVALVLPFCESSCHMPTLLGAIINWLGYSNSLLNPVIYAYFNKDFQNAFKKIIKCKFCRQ
Procedure: as §1

hD3 receptor = biological target: T8, hD3 receptor (Homo sapiens, UniProt P35462); assay: Radioligand binding, dopamine D3 ([3H]spiperone); details: read-out: Binding affinity (Inhibition rate % at 10 μM) D3
T8 construct: purchased BioSignal Packard Inc., Montreal, Canada
T8 sequence (P35462 whole entry): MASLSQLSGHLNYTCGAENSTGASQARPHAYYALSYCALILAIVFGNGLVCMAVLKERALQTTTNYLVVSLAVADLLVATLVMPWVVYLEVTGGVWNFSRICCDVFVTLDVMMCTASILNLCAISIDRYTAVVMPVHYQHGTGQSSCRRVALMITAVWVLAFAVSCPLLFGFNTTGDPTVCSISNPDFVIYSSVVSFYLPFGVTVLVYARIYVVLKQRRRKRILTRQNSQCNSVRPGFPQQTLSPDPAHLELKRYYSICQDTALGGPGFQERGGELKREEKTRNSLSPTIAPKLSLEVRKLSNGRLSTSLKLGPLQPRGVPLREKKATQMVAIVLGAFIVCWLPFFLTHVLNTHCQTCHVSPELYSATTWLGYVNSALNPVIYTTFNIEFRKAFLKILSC

SMILES	IC50 [1] [nM]	inhibition at 10 µM [1] [%]	inhibition at 10 µM (D1) [%]	inhibition at 10 µM (5-HT2a) [%]	melting point [°C]	inhibition at 10 µM (5-HT7) [%]	inhibition at 10 µM (hD4.2 receptor) [%]	inhibition at 10 µM (hD2L receptor) [%]	inhibition at 10 µM (5-HT2c) [%]	inhibition at 10 µM (5-HT1a) [%]	inhibition at 10 µM (hD3 receptor) [%]	5-HT6 affinity compared with known selective antagonists ([1]; in words)
COc1cc(C2(C)C(=O)Nc3ccccc3C2=O)ccc1O (stereo not drawn) [Example 31, 3-(4-hydroxy-3-methoxy-phenyl)-3-methyl-1H-quinoline-2,4-dione]	801	70.6	37.1	43.5	168 to 169	16.4	0	9.2	10.2	31.2	9.8	–
CC1(c2ccc(O)c(O)c2)C(=O)Nc2ccccc2C1=O (stereo not drawn) [Example 32, 3-(3,4-dihydroxy-phenyl)-3-methyl-1H-quinoline-2,4-dione]	769	71	39	26.9	259 to 261	20.1	0	16	31.9	13.5	12.6	–
COc1ccc(C2(C)C(=O)Nc3cc(OC)cc(Cl)c3C2=O)cc1 (stereo not drawn) [Example 35, 5-chloro-7-methoxy-3-(4-methoxy-phenyl)-3-methyl-1H-quinoline-2,4-dione]	1360	69.1	43.1	20.7	222 to 224	22.4	1.7	5.1	16.4	52.3	6.4	–
CC1(c2ccc([N+](=O)[O-])cc2)C(=O)Nc2cc(Cl)ccc2C1=O (stereo not drawn) [Example 37, 7-chloro-3-methyl-3-(4-nitro-phenyl)-1H-quinoline-2,4-dione]	1000	73.3	49.2	49.2	209 to 210	21	0	8.3	1.4	10.4	10.5	–
CC1(c2ccc(N)cc2)C(=O)Nc2cc(Cl)ccc2C1=O (stereo not drawn) [Example 38, 3-(4-amino-phenyl)-7-chloro-3-methyl-1H-quinoline-2,4-dione]	585	74.1	44.3	31.5	155 to 156	17.4	5.8	16.5	20.7	51.9	16.8	–
CN(C)c1ccc(C2(C)C(=O)Nc3cc(Cl)cc(Cl)c3C2=O)cc1 (stereo not drawn) [Example 40, 5,7-dichloro-3-(4-dimethylamino-phenyl)-3-methyl-1H-quinoline-2,4-dione]	563	67.2	40.8	42.2	268 to 269	30.3	0	10.5	6.5	50.2	4.5	–
CCN(CC)c1ccc(C2(C)C(=O)Nc3cc(Cl)cc(Cl)c3C2=O)cc1 (stereo not drawn) [Example 42, 5,7-dichloro-3-(4-diethylamino-phenyl)-3-methyl-1H-quinoline-2,4-dione]	15	69.5	38.7	16.9	247 to 249	10.1	8.5	15.7	13.7	6.5	25.3	almost same affinities as or better affinities than known selective antagonists
COc1ccc(C2(C)C(=O)Nc3cc(N4CCN(C)CC4)cc(Cl)c3C2=O)cc1 (stereo not drawn) [Example 46, 5-chloro-3-(4-methoxy-phenyl)-3-methyl-7-(4-methyl-piperazine-1-yl)-1H-quinoline-2,4-dione]	1460	67.1	16	16.5	201 to 202	17.8	7.2	30.4	10.7	25.4	16.7	–
CN1CCN(c2ccc3c(c2)NC(=O)C(C)(c2ccc(N)cc2)C3=O)CC1 (stereo not drawn) [Example 50, 3-(4-amino-phenyl)-3-methyl-7-(4-methyl-piperazine-1-yl)-1H-quinoline-2,4-dione]	942	74.5	34.1	21.5	265 to 267	20.5	0	8.2	15.4	6.7	50.1	–
CN1CCN(c2ccc3c(c2)NC(=O)C(C)(c2ccc([N+](=O)[O-])cc2)C3=O)CC1 (stereo not drawn) [Example 51, 3-methyl-7-(4-methyl-piperazine-1-yl)-3-(4-nitro-phenyl)-1H-quinoline-2,4-dione]	904	73.5	40.9	26.4	150 to 151	17.5	0	7.4	20.3	44.2	13.5	–
